Laboratory results: US5849729A, “Use of hydrolyzed cocoa butter for percutaneous absorption” (Hershey Foods Corporation, priority 1995, dated 1998)
Values joined by “and” are separate entries in the source; they are usually repeats but may differ in a detail not shown here. Identical values can stand only once.

Experiment: In-vitro percutaneous absorption of retinoic acid and triamcinolone acetonide from two cocoa butter vehicles (Franz cells, 48 h)
Settings: for % Abs (% Absorbed) / % Absorbed / total absorption: percent of applied dose
Description: The objective of this study was to measure the permeation of retinoic acid and triamcinolone acetonide through human skin in-vitro from two cocoa butter vehicles.
Two cocoa butter vehicles supplied by Hershey Foods Corporation were utilized: (1) pure cocoa butter and (2) partially hydrolyzed cocoa butter emulsion. Radioactive [11,12-^3 H] [retinoic acid (NET 920, Lot 2930-067, specific activity 1 mCi/ml) and [6,7-^3 H]-triamcinolone acetonide (NET 470, Lot 2904-170, specific activity 1 mCi/ml) were obtained from Dupont-New England Nuclear Corporation, Boston, Mass.
Each of the two cocoa butter vehicles was spiked separately with ^3 H-retinoic acid and ^3 H-Triamcinolone acetonide to give a total of four radioactive formulations for study. This was done by adding 25 μl (containing 25 μCi) of each tracer solution to approximately 1 gram of each vehicle and mixing with the tip of the dispensing micropipette. The pure cocoa butter vehicle was liquified by holding it under warm tap water prior to spiking. This was not done with the partially hydrolyzed cocoa butter emulsion. Neither formulation was used for three days after spiking to allow for diffusional mixing to take place. Final radioactive concentrations of each formulation were: […]
Human trunk skin without obvious signs of disease was used throughout. It was obtained within 24 hours of death, dermatomed to a thickness of approximately 0.25 mm, cryopreserved and sealed in water vapor-impermeableplastic bags. It was stored at -70° C. until the day of use then thawed by placing the bag in 37° C. water.
Skin from a single donor was cut into multiple sections large enough to fit on 0.8 cm^2 Franz cells. The dermal chamber was filled with isotonic saline, pH 7.4, into which a small magnetic stirring bar was placed. The epidermal chamber was left open to the ambient laboratory environment, approximately 22° C. and 40-60% RH. The cells were placed in a diffusion apparatus in which the dermal receptor solution was stirred magnetically at 600 RPM and its temperature maintained at 37° C.
To assure the integrity of each skin section, its permeability to tritiated water was determined before application of the test formulations. Following a brief (0.5-1 hour) equilibration period, 150 μl ^3 H2 O (specific activity 0.3 μCi/ml) was layered across the top of the skin section so that the entire exposed surface was covered. After 5 minutes the aqueous layer was removed and the surface of the skin carefully blotted dry. At t=0.5 hour the saline receptor phase was removed and analyzed for radioactive content by liquid scintillation counting. Skin specimens in which absorption of ^3 H2 O was less than 1.25 μl were considered acceptable.
Subsequently, each test formulation was applied at a target dose of 10 mg (cream) or 10 μl (butter). The cream formulation (partially hydrolyzed cocoa butter emulsion) was applied from the smooth, rounded-tip of a glass rod, the exact amount determined by weighing the rod before and after application. The butter formulation (pure cocoa butter) was first liquified under warm tap water, allowed to cool to room temperature, then applied with a 10 μl positive displacement micropipette prior to resolidifying. At 4, 8, 12, 24, 36 and 48 hours the receptor solution was removed in its entirety, replaced with fresh solution, and a 1 ml aliquot taken and assayed for radioactive content by liquid scintillation counting.
A 1 ml aliquot of each receptor sample containing ^3 H2 O, ^3 H-retinoic acid, or ^3 H-triamcinolone acetonide was placed in a 7 ml glass scintillation vial and gelled by the addition of 5 ml Opti-Fluor (Packard Instrument Co., Meriden, Conn.). These were counted in a Packard Tri-Carb Model 1900CA Liquid scintillation Analyzer equipped with internal standard and automatic quench correction.

[1] = cream (partially hydrolyzed cocoa butter emulsion), 48 h, individual skin sections
[2] = cream, 48 h, average of three donors
[3] = cream, 48 h, average per skin donor (n=4), listed as RETINOIC ACID
[4] = cream, 48 h, average per skin donor (n=4), listed as Retinoic Acid

CC1=C(/C=C/C(C)=C/C=C/C(C)=C/C(=O)O)C(C)(C)CCC1 [retinoic acid]
% Abs (% Absorbed) (butter, 48 h, average per skin donor (n=4), listed as Retinoic Acid): 13.67% and 18.02% and 16.97%
Penet (Total Penetration) [1]: 824.73 and 721.36 and 745.68 and 808.17 and 1027.61 and 945.49 and 550.30 and 524.77 and 919.75 and 670.20 and 859.80 and 1068.35
% Abs (% Absorbed) [1]: 14.03% and 14.76% and 13.59% and 17.11% and 17.20% and 15.81% and 13.56% and 15.67% and 21.00% and 18.37% and 18.57% and 20.67%
Rate of absorption, R1 (cream (partially hydrolyzed cocoa butter emulsion), sample R1, mid-t 2 h, individual skin sections): 40.91 ng/cm^2 /hr and 36.94 ng/cm^2 /hr and 38.12 ng/cm^2 /hr and 45.28 ng/cm^2 /hr and 74.50 ng/cm^2 /hr and 68.54 ng/cm^2 /hr and 46.23 ng/cm^2 /hr and 49.65 ng/cm^2 /hr and 16.18 ng/cm^2 /hr and 50.09 ng/cm^2 /hr and 69.86 ng/cm^2 /hr and 77.41 ng/cm^2 /hr
Rate of absorption, R3 (cream (partially hydrolyzed cocoa butter emulsion), sample R3, mid-t 10 h, individual skin sections): 23.20 ng/cm^2 /hr and 19.99 ng/cm^2 /hr and 20.80 ng/cm^2 /hr and 24.15 ng/cm^2 /hr and 28.97 ng/cm^2 /hr and 25.18 ng/cm^2 /hr and 16.74 ng/cm^2 /hr and 15.77 ng/cm^2 /hr and 27.41 ng/cm^2 /hr and 19.26 ng/cm^2 /hr and 26.16 ng/cm^2 /hr and 30.74 ng/cm^2 /hr
Rate of absorption, R4 (cream (partially hydrolyzed cocoa butter emulsion), sample R4, mid-t 18 h, individual skin sections): 17.83 ng/cm^2 /hr and 16.44 ng/cm^2 /hr and 14.68 ng/cm^2 /hr and 15.42 ng/cm^2 /hr and 27.53 ng/cm^2 /hr and 24.05 ng/cm^2 /hr and 12.20 ng/cm^2 /hr and 11.56 ng/cm^2 /hr and 26.23 ng/cm^2 /hr and 18.49 ng/cm^2 /hr and 25.34 ng/cm^2 /hr and 30.20 ng/cm^2 /hr
Rate of absorption, R5 (cream (partially hydrolyzed cocoa butter emulsion), sample R5, mid-t 30 h, individual skin sections): 14.89 ng/cm^2 /hr and 15.68 ng/cm^2 /hr and 17.30 ng/cm^2 /hr and 17.77 ng/cm^2 /hr and 15.95 ng/cm^2 /hr and 14.81 ng/cm^2 /hr and 8.32 ng/cm^2 /hr and 7.95 ng/cm^2 /hr and 15.24 ng/cm^2 /hr and 11.88 ng/cm^2 /hr and 12.50 ng/cm^2 /hr and 19.16 ng/cm^2 /hr
Rate of absorption, R6 (cream (partially hydrolyzed cocoa butter emulsion), sample R6, mid-t 42 h, individual skin sections): 20.33 ng/cm^2 /hr and 14.24 ng/cm^2 /hr and 14.46 ng/cm^2 /hr and 17.62 ng/cm^2 /hr and 16.38 ng/cm^2 /hr and 15.16 ng/cm^2 /hr and 8.78 ng/cm^2 /hr and 7.68 ng/cm^2 /hr and 13.21 ng/cm^2 /hr and 9.49 ng/cm^2 /hr and 10.20 ng/cm^2 /hr and 14.22 ng/cm^2 /hr
Total Penetration [2]: 805.52
Penet (Total Penetration) [3]: 774.99 and 762.04 and 879.52
Penet (Total Penetration) [4]: 879.52 and 762.04 and 774.99
Rate of absorption, R1 (cream, R1, mid-t 2 h, average of three donors): 55.06 ng/cm^2 /hr
Rate of absorption, R1 (cream, R1, mid-t 2 h, average per skin donor (n=4), listed as RETINOIC ACID): 40.32 ng/cm^2 /hr and 59.73 ng/cm^2 /hr and 65.14 ng/cm^2 /hr
Rate of absorption, R1 (cream, R1, mid-t 2 h, average per skin donor (n=4), listed as Retinoic Acid): 65.14 ng/cm^2 /hr and 59.73 ng/cm^2 /hr and 40.32 ng/cm^2 /hr
Rate of absorption, R3 (cream, R3, mid-t 10 h, average of three donors): 23.20 ng/cm^2 /hr
Rate of absorption, R3 (cream, R3, mid-t 10 h, average per skin donor (n=4), listed as RETINOIC ACID): 22.04 ng/cm^2 /hr and 21.67 ng/cm^2 /hr and 25.89 ng/cm^2 /hr
Rate of absorption, R3 (cream, R3, mid-t 10 h, average per skin donor (n=4), listed as Retinoic Acid): 25.89 ng/cm^2 /hr and 21.67 ng/cm^2 /hr and 22.04 ng/cm^2 /hr
Rate of absorption, R4 (cream, R4, mid-t 18 h, average of three donors): 20.00 ng/cm^2 /hr
Rate of absorption, R4 (cream, R4, mid-t 18 h, average per skin donor (n=4), listed as RETINOIC ACID): 16.09 ng/cm^2 /hr and 18.83 ng/cm^2 /hr and 25.07 ng/cm^2 /hr
Rate of absorption, R4 (cream, R4, mid-t 18 h, average per skin donor (n=4), listed as Retinoic Acid): 25.07 ng/cm^2 /hr and 18.83 ng/cm^2 /hr and 16.09 ng/cm^2 /hr
Rate of absorption, R5 (cream, R5, mid-t 30 h, average of three donors): 14.29 ng/cm^2 /hr
Rate of absorption, R5 (cream, R5, mid-t 30 h, average per skin donor (n=4), listed as RETINOIC ACID): 16.41 ng/cm^2 /hr and 11.76 ng/cm^2 /hr and 14.70 ng/cm^2 /hr
Rate of absorption, R5 (cream, R5, mid-t 30 h, average per skin donor (n=4), listed as Retinoic Acid): 14.70 ng/cm^2 /hr and 11.76 ng/cm^2 /hr and 16.41 ng/cm^2 /hr
Rate of absorption, R6 (cream, R6, mid-t 42 h, average of three donors): 13.47 ng/cm^2 /hr
Rate of absorption, R6 (cream, R6, mid-t 42 h, average per skin donor (n=4), listed as RETINOIC ACID): 16.62 ng/cm^2 /hr and 12.00 ng/cm^2 /hr and 11.78 ng/cm^2 /hr
Rate of absorption, R6 (cream, R6, mid-t 42 h, average per skin donor (n=4), listed as Retinoic Acid): 11.78 ng/cm^2 /hr and 12.00 ng/cm^2 /hr and 16.62 ng/cm^2 /hr
% Absorbed / total absorption [2]: 16.7%
% Absorbed / total absorption (cream, 48 h, average of three donors, listed as Retinoic Acid): 16.69%
% Abs (% Absorbed) [3]: 14.87% and 15.56% and 19.65%
% Abs (% Absorbed) [4]: 19.65% and 15.56% and 14.87%
difference between partially hydrolyzed cocoa butter emulsion and pure cocoa butter as delivery vehicle (in words): no appreciable difference
average absorption (with cocoa butter and partially hydrolyzed cocoa butter emulsion (both vehicles)): 16.5%
